Tests used:
[1] = tested on: bone marrow-derived macrophages (BMDM); test: TNF-α and IL-6 production in mouse bone marrow-derived macrophages (ELISA); format: cell-based, C57BL/6J mice; conditions: mBMDM
Procedure: The ability of Lipid A mimetics 1–3 to induce the production of TNF-α and IL-6 from bone marrow-derived macrophages (BMDM) in mice was subsequently examined and compared to that of synthetic E. coli Lipid A and E. coli MPLA, which are reliable positive controls due to their chemical purity and homogeneity (Figure 6). […] Likewise, 1 nM (1.8 ng/mL) of 1 or 2 triggered the release of a 3-fold higher amount of IL-6 (1500 pg/mL) compared to Lipid A (500 pg/mL).
Bone-marrow-derived microphages (BMDMs) were isolated and differentiated from the bone marrow of C57BL/6J mice. The bone marrow was flushed from femur and fibia with RPMI media. The erythrocytes were lysed with 0.88% ammonium chloride, 15 min at 37 °C. A single-cell suspension of the bone marrow cells was then seeded in cell culture flasks at a concentration of 1 × 10^6 cells/mL in RPMI supplemented with 20% FBS and 40 ng/mL recombinant M-CSF. The cell culture medium was changed on day 3. On day 6, the differentiated cells were trypsinized, counted, and seeded in 24-well plates at a concentration of 1 × 10^6 cells/mL in RPMI supplemented with 10% FBS. After 24 h, the cells were stimulated with Lipid A mimetics 1–3 and with synthetic E. coli Lipid A/MPLA (E. coli O111:B4 LPS was used as positive control) for 16 h. The nanomolar concentrations of 1–3 were calculated according to the MW of the synthetic compounds. The supernatants were then tested for cytokines using Ready-Set-Go ELISA kits (eBioscience).

THP-1 cells = test: Cytokine expression (TNF-α, IL-8, MCP-1; ELISA) in TPA-differentiated THP-1 macrophage-like cells; format: cell-based, human; conditions: for activation of the MyD88 signaling pathway compared to Re-LPS/LPS: THP-1; for potency in induction of expression of IL-8 compared to Re-LPS/LPS / potency in induction of expression of TNF-α compared to Re-LPS/LPS: dose-dependent
Procedure: Lipid A mimetics 1–3 were examined for the ability to initiate the expression of tumor necrosis factor-α (TNF-α), interleukin-8 (IL-8), and monocyte chemotactic protein-1 (MCP-1) in the human monocytic macrophage-like cell line THP-1, which expresses MD-2, CD14, and a variety of cell surface receptors, including TLR4.
THP-1 cells were grown in RPMI-1640 cell-culture medium (Life Technologies) that was supplemented with 2 mM L-glutamine, 100 U/mL penicillin, 100 μg/mL streptomycin, and 10% FCS. Cells were seeded in a 96-well plate at 10^5 cells/well in 150 μL of complete medium and stimulated by 200 nM TPA for 24 h to induce the differentiation into macrophage-like cells.[59] […] Cells were stimulated with α,α-GM-LAMs 1–3 at the indicated concentration and with E. coliRe-LPS (or E. coli O111:B4 LPS), which were added as solutions in 10 μL of complete medium. The total volume of the well after stimulation reached 220 μL. The cells were incubated for 18 h, and the supernatants were analyzed for TNF-α, IL-8, and MCP-1 by ELISA (BD Biosciences).
Supplementary SI-Figure 2
E. coli wild type O111:B4 LPS is a large heterogeneous molecule with molecular weight (MW) comprising 10-15 kDa. Since we were particularly interested in the molecular recognition mechanisms implicated in the binding of LPS by the MD-2∙TLR4 complex wherein the Lipid A/Re-LPS (MW 1.8/2.2 kDa, respectively) portion of LPS is mostly involved, we have analyzed the dose-dependent THP-1 cells activation by synthetic α,α-GM-LAM 1-3 (at the concentrations 0.1 – 300 ng/ml) compared to E. coli Re-LPS which is more appropriate in this instance. Since the divergences in the expression of different cytokines by E. coli LPS vs. Re-LPS are only scarcely reported in the literature, we have performed dose-dependent activation experiments comparing expression of TNF-α, IL-8 and MCP-1 by E. coli O111:B4 LPS and E. coli Re-LPS at the concentrations 0.4 – 100 nM. Wild-type LPS (MW 10 […]
range (0.4 – 10 nM), whereas at the concentrations above 10 nM (50 nM for MCP-1) the levels of cytokines […]
This might be explained by a different aggregation state of Re-LPS and wild type LPS, and, therefore, the alterations in the transfer of a single LPS molecule to TLR4∙MD-2 complex by LBP and CD-14. Higher MW (> 10 kDa) of the LPS molecule applied for the calculations of the concentrations in [nM] would result in the shift of the activation profile induced by wild-type LPS. Calculation of EC50 values were hardly possible, since the maximum TLR4 saturation levels were not achieved at the concentrations tested.
SI-Figure 2. Dose-dependent expression of pro-inflammatory cytokines TNF-α, IL-8 and MCP-1 in human macrophage cell line THP-1 by E. coli Re-LPS compared to E. coli wild-type O111:B4 LPS. (A) Comparative expression of TNF-a; (B) comparative expression of IL-8; (C) comparative expression of MCP-1 […]
(1 picture or pasted object on this page, not shown here)
Supplementary SI-Figure 3
Dose-dependent responses (THP-1 cells: α,α-GM-LAM 1-3 and Re-LPS) at the concentration range 0.4 – 100 ng/ml which are presented in the Figure 5, were extended to the higher concentration range (up to 300 ng/ml).
SI-Figure 3. Dose-dependent expression of cytokines induced by α,α-GM-LAM 1-3 in macrophage cell line THP-1 compared to E. coli Re-LPS at the concentration range 0.4 – 300 ng/ml. (A) Production of TNF-α; (B) Induction of […]
Supplementary SI-Figure 4
Lipid A mimetic 1 was examined for the activation of NF-κB (Nuclear factor kappaB) and IRF3
(Interferon regulatory factor 3). IRF3 activation […]
noticeable after 1h stimulation, though was
LPS. At 1h stimulation the α,α-GM-LAM 1 was […]
whereas at 3h simulation compound 1 (at a […]
stronger phosphorylation of IκBa (P-IκBa levels) as well as the higher levels of IκBa (reflecting the NF-κB dependent re-synthesis of IκB following its
Thus, IRF3 activation and NF-κB activation […]
degradation and its NF-κB dependent resynthesis) […]
compared to LPS after 3h stimulation. […]

Row | Structure (SMILES) | fold higher amount of IL-6 compared to Lipid A ([1]; 1 nM) | activation of the MyD88 signaling pathway compared to Re-LPS/LPS (THP-1 cells) | potency in induction of expression of IL-8 compared to Re-LPS/LPS (THP-1 cells; THP-1, 18 h) | potency in induction of expression of TNF-α compared to Re-LPS/LPS (THP-1 cells; THP-1, 18 h) | expression level of IL-6 ([1]; 1 nM) | IL-6 release compared to MPLA ([1]; concentrations above 1 nM) | induction of the expression of cytokines (THP-1 cells; THP-1, TNF-α, IL-8, MCP-1) | release of MCP-1 compared to Re-LPS and compound 1 (THP-1 cells; THP-1, 18 h)
1 | CCCCCCCCCCCCCC(=O)O[C@H](CCCCCCCCCCC)CC(=O)O[C@@H]1[C@@H](NC(=O)C[C@@H](CCCCCCCCCCC)OC(=O)CCCCCCCCCCC)[C@@H](O[C@H]2O[C@H](COP(=O)(O)O)[C@@H](OC(=O)C[C@@H](CCCCCCCCCCC)OC(=O)CCCCCCCCCCC)[C@H](O)[C@@H]2OC)O[C@H](CO)[C@H]1OP(=O)(O)O [Compound 1, 4-O-[(R)-3-(Dodecanoyloxy)tetradecanoyl]-2-O-methyl-6-O-phosphoryl-α-D-mannopyranosyl-(1↔1)-2-deoxy-2-[(R)-3-(dodecanoyloxy)tetradecanoylamino]-4-O-phosphoryl-3-O-[(R)-3-(tetradecanoyloxy)tetradecanoyl]-α-D-glucopyranoside] | 3 fold | more potent activators | higher potency | higher potency |  |  |  | 
2 | CCCCCCCCCCCCCC(=O)O[C@H](CCCCCCCCCCC)CC(=O)O[C@@H]1[C@@H](NC(=O)C[C@@H](CCCCCCCCCCC)OC(=O)CCCCCCCCCCC)[C@@H](O[C@H]2O[C@H](CO)[C@@H](OC(=O)C[C@@H](CCCCCCCCCCC)OC(=O)CCCCCCCCCCC)[C@H](O)[C@@H]2OC)O[C@H](CO)[C@H]1OP(=O)(O)O [Compound 3, 4-O-[(R)-3-(Dodecanoyloxy)tetradecanoyl]-2-O-methyl-α-D-mannopyranosyl-(1↔1)-2-deoxy-2-[(R)-3-(dodecanoyloxy)tetradecanoylamino]-4-O-phosphoryl-3-O-[(R)-3-(tetradecanoyloxy)tetradecanoyl]-α-D-glucopyranoside] |  |  |  |  | only marginal expression level | higher IL-6 release than MPLA | dampened induction | 
3 | CCCCCCCCCCCCCC(=O)O[C@H](CCCCCCCCCCC)CC(=O)O[C@@H]1[C@@H](NC(=O)C[C@@H](CCCCCCCCCCC)OC(=O)CCCCCCCCCCC)[C@@H](O[C@H]2O[C@H](COP(=O)(O)O)[C@@H](OC(=O)C[C@@H](CCCCCCCCCCC)OC(=O)CCCCCCCCC)[C@H](O)[C@@H]2OC)O[C@H](CO)[C@H]1OP(=O)(O)O [Compound 2, 4-O-[(R)-3-(Decanoyloxy)tetradecanoyl]-2-O-methyl-6-O-phosphoryl-α-mannopyranosyl-(1↔1)-2-deoxy-2-[(R)-3-(dodecanoyloxy)tetradecanoylamino]-4-O-phosphoryl-3-O-[(R)-3-(tetradecanoyloxy)tetradecanoyl]-α-D-glucopyranoside] | 3 fold | more potent activators | higher potency | higher potency |  |  |  | clearly more effective
